The values below are quoted from earlier work in US20070060740A1, “Protein crystal” (priority 2002, published 2007).

One may read the IC50 as the concentration that gives 50% inhibition.

The subject of the series is LXR. As to conditions: non-steroidal synthetic LXR ligands, background statement; read-out: binding IC50.

As to `CCCc1c(OCCCSc2ccc(CC(=O)O)cc2Cl)ccc2c(C(F)(F)F)noc12` [F3MethylAA], the IC50 was […].

On to `O=C(O)Cc1cccc(OCCCN(Cc2cccc(C(F)(F)F)c2Cl)CC(c2ccccc2)c2ccccc2)c1` [GW3965, 3-(3-(2-chloro-3-trifluoromethylbenzyl-2,2-diphenylethylamino)propoxy)phenylacetic acid], for which the concentration for half-maximal inhibition (IC50) was roughly 10 nM. As for `O=S(=O)(c1ccccc1)N(CC(F)(F)F)c1ccc(C(O)(C(F)(F)F)C(F)(F)F)cc1` [T0901317, N-(2,2,2-trifluoroethyl)-N-[4-[2,2,2-trifluoro-1-hydroxy-1-(trifluoromethyl)ethyl]phenyl]-benzenesulfonamide], the IC50 is […].
